Laboratory results: ChEMBL document CHEMBL4402568, “Antiepileptic Drug Carbamazepine Binds to a Novel Pocket on the Wnt Receptor Frizzled-8” (J Med Chem, 2020)
Activity calls are given as the source filed them. No cut-off for these calls is given here.

What was measured:
[1] = biological target: Frizzled-8 (Mus musculus) (UniProt Q61091); assay: Binding affinity to immobilized mouse C-terminal Rhinovirus 3C cleavage site-fused 6xHis-tagged Frizzled-8 CRD (Q33 to G173 resideus) transfected with pDisplay_BirA-ER plasmid in HEK293T cells for biotinylation assessed as protein-compound complex formation at 5 to 50 uM by surface plasmon resonance assay
Chain of Frizzled-8 (Mus musculus) (Q61091 whole entry, the tested form may be a part): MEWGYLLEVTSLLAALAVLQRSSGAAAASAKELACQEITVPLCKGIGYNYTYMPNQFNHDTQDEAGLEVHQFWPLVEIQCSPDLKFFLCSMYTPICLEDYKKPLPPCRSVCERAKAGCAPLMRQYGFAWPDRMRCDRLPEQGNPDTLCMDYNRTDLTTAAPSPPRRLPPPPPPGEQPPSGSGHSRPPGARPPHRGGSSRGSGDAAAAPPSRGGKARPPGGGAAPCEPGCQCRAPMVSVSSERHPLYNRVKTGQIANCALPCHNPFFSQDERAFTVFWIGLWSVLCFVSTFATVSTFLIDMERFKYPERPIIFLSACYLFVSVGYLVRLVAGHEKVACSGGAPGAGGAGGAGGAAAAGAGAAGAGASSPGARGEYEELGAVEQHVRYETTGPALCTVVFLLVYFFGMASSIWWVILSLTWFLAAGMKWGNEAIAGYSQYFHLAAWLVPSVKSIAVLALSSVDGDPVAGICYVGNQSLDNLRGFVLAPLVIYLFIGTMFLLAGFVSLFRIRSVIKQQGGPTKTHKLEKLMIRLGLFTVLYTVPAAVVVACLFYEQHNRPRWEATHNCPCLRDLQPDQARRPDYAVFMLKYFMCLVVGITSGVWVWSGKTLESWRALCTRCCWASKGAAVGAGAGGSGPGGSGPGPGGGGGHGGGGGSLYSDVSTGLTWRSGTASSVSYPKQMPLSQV

[2] = biological target: Frizzled-7 (Homo sapiens) (UniProt O75084); assay: Binding affinity to immobilized human Frizzled-7 CRD (Q33 to G173 resideus) transfected with pDisplay_BirA-ER plasmid in HEK293T cells for biotinylation by surface plasmon resonance assay
[3] = biological target: Frizzled-5 (Homo sapiens) (UniProt Q13467); assay: Binding affinity to immobilized human Frizzled-5 CRD (P31 to Y150 resideus) transfected with pDisplay_BirA-ER plasmid in HEK293T cells for biotinylation by surface plasmon resonance assay
Chain of Frizzled-5 (Homo sapiens) (Q13467 whole entry): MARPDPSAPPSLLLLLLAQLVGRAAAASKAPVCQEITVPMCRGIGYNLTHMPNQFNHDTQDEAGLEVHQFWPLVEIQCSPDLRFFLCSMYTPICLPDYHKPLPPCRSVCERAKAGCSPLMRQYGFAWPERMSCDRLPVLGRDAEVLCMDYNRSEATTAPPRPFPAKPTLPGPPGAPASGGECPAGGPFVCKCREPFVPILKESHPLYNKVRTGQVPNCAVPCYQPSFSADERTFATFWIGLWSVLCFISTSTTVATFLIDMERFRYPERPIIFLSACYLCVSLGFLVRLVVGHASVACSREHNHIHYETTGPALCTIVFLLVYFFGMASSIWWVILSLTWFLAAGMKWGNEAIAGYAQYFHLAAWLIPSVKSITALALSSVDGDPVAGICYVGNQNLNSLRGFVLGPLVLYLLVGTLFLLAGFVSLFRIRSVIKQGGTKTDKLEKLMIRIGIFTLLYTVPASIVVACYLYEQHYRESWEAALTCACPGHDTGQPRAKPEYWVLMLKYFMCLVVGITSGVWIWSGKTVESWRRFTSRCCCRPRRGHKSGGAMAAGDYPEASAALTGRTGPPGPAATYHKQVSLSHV

[4] = biological target: Frizzled-8 (Mus musculus) (UniProt Q61091); details: 8 to 64 uM
Description: Inhibition of full length mouse Frizzled-8 transfected in Frizzled-1/2/7 knockout HEK293T cells using lentiviral expression system cotransfected with Renilla luciferase assessed as reduction in Wnt3a signaling by measuring luciferase activity at 8 to 64 uM measured after 24 hrs by Dual-Glo luciferase reporter assay

Row | Activity [1] | Activity [2] | Activity [3] | inhibition [4] | SMILES
1 | inactive |  |  |  | CCN(CC)CCCC(C)Nc1c2ccc(Cl)cc2nc2ccc(OC)cc12 (stereo not given)
2 | Active | inactive | inactive | Active | NC(=O)N1c2ccccc2C=Cc2ccccc21
